From US20040151679A1, “Dissolving agent for melanin” (priority 2001, published 2004)

Assay: Rate of dissolution of model melanin and color of its solutions
Assay type: physicochemical, Aspergillus niger
Conditions: for Time of dissolution: model melanin; for Color of the solution: solution of model melanin

## NCCO [Monoethanolamine]
  pH of the solution: 10
  Time of dissolution: 2 min
  Color of the solution: -”-

## CC(=O)O [0.01 N solution of acetic acid, acetic acid]
  pH of the solution: 3.5
Not dissolved within this time
  Time of dissolution: Not dissolved in 5 hours

## CCN(CC)CC [Triethylamine]
  pH of the solution: 8
Not dissolved within this time
  Time of dissolution: Not dissolved in 5 hours

## OO [4% solution of HP, hydrogen peroxide]
  pH of the solution: 3.5
Not dissolved within this time
  Time of dissolution: Not dissolved in 5 hours

## FN(F)C1(C(F)(F)F)C(F)(F)C(F)(F)C(F)(F)C(F)(C(F)(F)F)C1(F)F (stereo not drawn) [Perfluoro-1,3-dimethyl-cyclohexylamine]
  pH of the solution: 7
  Time of dissolution: 3 min
  Color of the solution: Lemon

## FC(F)(Br)C(F)(F)Br [1,2-dibromtetrafluoroethane]
  pH of the solution: 7
  Time of dissolution: 5 min
  Color of the solution: Colorless

## FC(F)(F)C(F)(F)C(F)(F)N(C(F)(F)C(F)(F)C(F)(F)F)C(F)(F)C(F)(F)C(F)(F)F [Tri(perfluoropropyl)amine (TPA), tri(perfluoropropyl)amine]
  pH of the solution: 7
  Color of the solution: Colorless
1 mg/ml in PFOC
  Time of dissolution: 0.5 min

## N [0.01% ammonia, ammonia]
  pH of the solution: 10.5
  Time of dissolution: 5 min
  Color of the solution: -”-

## [Na+].[OH-] [0.01 N sodium hydroxide, sodium hydroxide]
  pH of the solution: 9.5
  Time of dissolution: 6 min
  Color of the solution: Yellow-

## FC1(F)C(F)(F)C(F)(F)C2(F)C(F)(F)C(F)(F)C(F)(F)C(F)(F)C2(F)C1(F)F (stereo not drawn) [Perfluorodecalin (PFD), perfluorodecalin]
  pH of the solution: 7
  Color of the solution: Colorless
1 mg/ml in PFOC
  Time of dissolution: 0.5 min
